Data: ChEMBL document CHEMBL5579827, “Discovery of orally bioavailable phenyltetrazolium derivatives for the acute treatment and the secondary prevention of ischemic stroke” (Eur J Med Chem, 2024)
Blank lines part the entries; values can stand above or below the compound they belong to. Active and inactive are the calls of the source. No cut-off for these calls is given here.

Legend:
[1] = Tmax in Sprague-Dawley rat at 10 mg/kg, po measured upto 8 hrs by LC-MS/MS analysis; type: ADME, organism-based; conditions: in vivo
N2a [2] = assay: Neuroprotective activity against OGD/R induced cell injury in mouse N2a cells assessed as cell viability at 10 uM preincubated under hypoxic condition for 2 hrs and measured after 24 hrs (reference value: 28.66 to 30.22 %); type: functional; conditions: time 26 hrs, read-out: Activity
[3] = AUC(0 to t) in Sprague-Dawley rat at 10 mg/kg, po measured upto 8 hrs by LC-MS/MS analysis; type: ADME, organism-based; conditions: in vivo
[4] = Cmax in Sprague-Dawley rat at 10 mg/kg, po measured upto 8 hrs by LC-MS/MS analysis; type: ADME, organism-based; conditions: in vivo
[5] = Metabolic stability in mouse liver microsomes assessed as half life at 50 uM preincubated with NADPH for 5 mins followed by compound addition and measured upto 60 mins by LC-MS/MS analysis; type: ADME, Microsome
Mus musculus [6] = assay: Neuroprotective activity against tMCAO-reperfusion induced brain injury in SPF C57 mouse model assessed as reduction in infarct volume at 30 mg/kg, iv measured after 24 hrs (reference value: 41.48%); type: functional; design: scale not given: the % may be the effect or the level left
[7] = Tmax in ICR mouse at 1 mg/kg, iv measured upto 8 hrs by LC-MS/MS analysis; type: ADME, organism-based; conditions: in vivo
[8] = Half-life in ICR mouse at 10 mg/kg, po measured upto 8 hrs by LC-MS/MS analysis; type: ADME, organism-based; conditions: in vivo
[9] = Metabolic stability in dog liver microsomes assessed as intrinsic clearance at 50 uM preincubated with NADPH for 5 mins followed by compound addition and measured upto 60 mins by LC-MS/MS analysis; type: ADME, Canis lupus familiaris, Microsome; conditions: read-out: CLH
Mus musculus [10] = assay: Neuroprotective activity against tMCAO-reperfusion induced brain injury in iv dosed SPF C57 mouse model assessed as decrease in Bax expression measured after 24 hrs by Western blotting analysis; type: functional, organism-based; conditions: dose 3-30 mg/kg
Mus musculus [11] = assay: Neuroprotective activity against tMCAO-reperfusion induced brain injury in SPF C57 mouse model assessed as reversal of reduced blood flow in semi-dark band area infarct volume at 3 to 30 mg/kg, iv measured after 24 hrs; type: functional, organism-based; conditions: dose 3-30 mg/kg
[12] = AUC(0 to infinity) in ICR mouse at 1 mg/kg, iv measured upto 8 hrs by LC-MS/MS analysis; type: ADME, organism-based; conditions: in vivo
[13] = AUC(0 to infinity) in Sprague-Dawley rat at 10 mg/kg, po measured upto 8 hrs by LC-MS/MS analysis; type: ADME, organism-based; conditions: in vivo
Mus musculus [14] = organism: Mus musculus; assay: Neuroprotective activity against photo-thrombotic SPF C57 mouse model assessed as decrease in sensorimotor impairment measured after day 4 to 7; type: functional, organism-based
Mus musculus [15] = assay: Neuroprotective activity against tMCAO-reperfusion induced brain injury in SPF C57 mouse model assessed as reduction in brain water content at 30 mg/kg, iv measured after 24 hrs; type: functional, organism-based
[16] = Cmax in ICR mouse at 10 mg/kg, po measured upto 8 hrs by LC-MS/MS analysis; type: ADME, organism-based; conditions: in vivo
N2a [17] = assay: Neuroprotective activity against OGD/R induced cell injury in mouse N2a cells assessed as reduction in apoptosis at 0.1 to 100 uM incubated for 24 hrs by TUNEL assay; type: functional, cell-based; conditions: dose 0.1-100 µM
Mus musculus [18] = assay: Neuroprotective activity against tMCAO-reperfusion induced brain injury in SPF C57 mouse model assessed as reduction in infarct volume at 10 mg/kg, iv measured after 24 hrs; type: functional; design: scale not given: the % may be the effect or the level left
[19] = Metabolic stability in human liver microsomes assessed as intrinsic clearance at 50 uM preincubated with NADPH for 5 mins followed by compound addition and measured upto 60 mins by LC-MS/MS analysis; type: ADME, Microsome; conditions: read-out: CLH
Mus musculus [20] = assay: Neuroprotective activity against tMCAO-reperfusion induced brain injury in iv dosed SPF C57 mouse model assessed as decrease in cytochrome C expression measured after 24 hrs by Western blotting analysis; type: functional, organism-based; conditions: dose 3-30 mg/kg
[21] = Metabolic stability in mouse liver microsomes assessed as intrinsic clearance at 50 uM preincubated with NADPH for 5 mins followed by compound addition and measured upto 60 mins by LC-MS/MS analysis; type: ADME, Microsome; conditions: read-out: CLH
N2a [22] = assay: Neuroprotective activity against OGD/R induced cell membrane integrity loss in mouse N2a cells assessed as reduction in LDH release at 0.1 to 100 uM incubated for 24 hrs; type: functional, cell-based; conditions: dose 0.1-100 µM
[23] = AUC(0 to infinity) in ICR mouse at 10 mg/kg, po measured upto 8 hrs by LC-MS/MS analysis; type: ADME, organism-based; conditions: in vivo
[24] = Half-life in Sprague-Dawley rat at 10 mg/kg, po measured upto 8 hrs by LC-MS/MS analysis; type: ADME, organism-based; conditions: in vivo
N2a [25] = assay: Neuroprotective activity against OGD/R induced cell injury in mouse N2a cells assessed as decrease in caspase-3 activity incubated for 24 hrs; type: functional, cell-based; conditions: dose 0.1-100 µM
Mus musculus [26] = assay: Neuroprotective activity against tMCAO-reperfusion induced brain injury in iv dosed SPF C57 mouse model assessed as reduction in infarction region measured after 24 hrs; type: functional, organism-based; conditions: dose 3-30 mg/kg
Mus musculus [27] = assay: Neuroprotective activity against photo-thrombotic SPF C57 mouse model assessed as change in motor function at 30 mg/kg, po measured after day 1 to 3; type: functional, organism-based
[28] = Cmax in ICR mouse at 1 mg/kg, iv measured upto 8 hrs by LC-MS/MS analysis; type: ADME, organism-based; conditions: in vivo
N2a [29] = assay: Neuroprotective activity against OGD/R induced cell injury in mouse N2a cells assessed as inhibition of cell damage at 0.1 to 100 uM incubated for 24 hrs; type: functional, cell-based; conditions: dose 0.1-100 µM
[30] = AUC(0 to t) in Sprague-Dawley rat at 10 mg/kg, po measured at 2 hrs by LC-MS/MS analysis; type: ADME, organism-based; conditions: in vivo
[31] = AUC(0 to t) in ICR mouse at 10 mg/kg, po measured upto 8 hrs by LC-MS/MS analysis; type: ADME, organism-based; conditions: in vivo
[32] = Cmax in Sprague-Dawley rat at 10 mg/kg, po measured at 2 hrs by LC-MS/MS analysis; type: ADME, organism-based; conditions: in vivo
[33] = Metabolic stability in dog liver microsomes assessed as half life at 50 uM preincubated with NADPH for 5 mins followed by compound addition and measured upto 60 mins by LC-MS/MS analysis; type: ADME, Canis lupus familiaris, Microsome
[34] = Metabolic stability in rat liver microsomes assessed as intrinsic clearance at 50 uM preincubated with NADPH for 5 mins followed by compound addition and measured upto 60 mins by LC-MS/MS analysis; type: ADME, Microsome; conditions: read-out: CLH
[35] = Metabolic stability in monkey liver microsomes assessed as intrinsic clearance at 50 uM preincubated with NADPH for 5 mins followed by compound addition and measured upto 60 mins by LC-MS/MS analysis; type: ADME, Macaca mulatta, Microsome; conditions: rhesus monkey, read-out: CLH
[36] = Oral bioavailability in ICR mouse at 10 mg/kg measured upto 8 hrs by LC-MS/MS analysis; type: ADME, organism-based; conditions: in vivo
Mus musculus [37] = assay: Neuroprotective activity against tMCAO-reperfusion induced brain injury in SPF C57 mouse model assessed as decrease in neurological deficit score at 30 mg/kg, iv measured after 24 hrs; type: functional
[38] = Tmax in ICR mouse at 10 mg/kg, po measured upto 8 hrs by LC-MS/MS analysis; type: ADME, organism-based; conditions: in vivo
[39] = Metabolic stability in rat liver microsomes assessed as half life at 50 uM preincubated with NADPH for 5 mins followed by compound addition and measured upto 60 mins by LC-MS/MS analysis; type: ADME, Microsome
Mus musculus [40] = assay: Neuroprotective activity against tMCAO-reperfusion induced brain injury in iv dosed SPF C57 mouse model assessed as decrease in cleaved caspase-3 expression measured after 24 hrs by Western blotting analysis; type: functional, organism-based; conditions: dose 3-30 mg/kg
[41] = Metabolic stability in human liver microsomes assessed as half life at 50 uM preincubated with NADPH for 5 mins followed by compound addition and measured upto 60 mins by LC-MS/MS analysis; type: ADME, Microsome
[42] = AUC(0 to t) in ICR mouse at 1 mg/kg, iv measured upto 8 hrs by LC-MS/MS analysis; type: ADME, organism-based; conditions: in vivo
Mus musculus [43] = assay: Neuroprotective activity against photo-thrombotic SPF C57 mouse model assessed as improvement in motor function at 30 mg/kg, po administered daily for 7 days; type: functional, organism-based; conditions: time 7.0 day
[44] = Metabolic stability in monkey liver microsomes assessed as half life at 50 uM preincubated with NADPH for 5 mins followed by compound addition and measured upto 60 mins by LC-MS/MS analysis; type: ADME, Macaca mulatta, Microsome; conditions: rhesus monkey

SMILES: CCCCC(O)c1ccc(Br)cc1-c1nnn(C2CC2)n1 (centres undefined)
viability at 10 µM (N2a [2]): 50.6%

SMILES: CCCCCC(O)c1ccccc1-c1nn[nH]n1 (centres undefined)
viability at 10 µM (N2a [2]): 35.6%

SMILES: CCCCCC(O)c1ccc(Br)cc1-c1nn[nH]n1 (centres undefined)
Tmax ([1]; Sprague-Dawley, read-out: Tmax): 15 min
viability at 10 µM (N2a [2]): 38%
AUC(0-t) at 8 h [3]: 2670 ng·h/mL
Cmax ([4]; Sprague-Dawley, read-out: Cmax): 13600 ng/mL

SMILES: CCCCC(O)c1ccc(Br)cc1-c1nn[nH]n1 (centres undefined)
Tmax ([1]; po, 10 mg/kg, 8 h): 120 min
half-life at 50 µM [5]: 15.6 min
Activity (Mus musculus [6]): 9.59%
Tmax [7]: 4.8 min
half-life [8]: 30.6 min
microsomal CLint at 50 µM [9]: < 7.4 µL/min/mg
Activity (Mus musculus [10]): Dose-Dependent Effect
Activity (Mus musculus [11]): Active
AUC(0-inf) [12]: 550 ng·h/mL
AUC ([13]; po, 10 mg/kg, 8 h): 11160 ng·h/mL
Activity (Mus musculus [14]): Dose-Dependent Effect
Activity (Mus musculus [15]): Active
Cmax [16]: 8710 ng/mL
Activity (N2a [17]): Active
Activity (Mus musculus [18]): 18.8%
microsomal CLint at 50 µM [19]: < 7.4 µL/min/mg
Activity (Mus musculus [20]): Dose-Dependent Effect
microsomal CLint at 50 µM [21]: 89.1 µL/min/mg
Activity (N2a [22]): Active
AUC(0-inf) [23]: 5590 ng·h/mL
t1/2 ([24]; po, 10 mg/kg, 8 h): 287 min
Activity (N2a [25]): Dose-Dependent Effect
Activity (Mus musculus [26]): Dose-Dependent Effect
Activity (Mus musculus [27]): Active
Cmax [28]: 3760 ng/mL
Activity (N2a [29]): Active
AUCt [30]: 5240 ng·h/mL
AUC(0-t) at 8 h [31]: 5240 ng·h/mL
Cmax [32]: 1070 ng/mL
half-life at 50 µM [33]: > 186 min
viability at 10 µM (N2a [2]): 56.6%
microsomal CLint at 50 µM [34]: 36.3 µL/min/mg
microsomal CLint at 50 µM [35]: < 7.4 µL/min/mg
bioavailability [36]: 94.9%
Activity (Mus musculus [37]): 2.07
AUC(0-t) at 8 h [3]: 6990 ng·h/mL
Cmax ([4]; po, 10 mg/kg, 8 h): 1130 ng/mL
Tmax [38]: 15 min
half-life at 50 µM [39]: 38.2 min
Activity (Mus musculus [40]): Dose-Dependent Effect
half-life at 50 µM [41]: > 186 min
AUC(0-t) at 8 h [42]: 550 ng·h/mL
Activity (Mus musculus [43]): Active
half-life at 50 µM [44]: > 186 min

SMILES: CCCC(O)c1ccccc1-c1nn[nH]n1 (centres undefined)
viability at 10 µM (N2a [2]): 35.6%

SMILES: CCCC(O)c1ccc(C2=CCCCC2)cc1-c1nn[nH]n1 (centres undefined)
viability at 10 µM (N2a [2]): 39.1%

Continued, in another order:

Tmax ([1]; Sprague-Dawley, read-out: Tmax): 15 min
AUC(0-t) at 8 h [3]: 2670 ng·h/mL
SMILES: CCCCC(O)c1cc(Br)ccc1-c1nn[nH]n1 (centres undefined)
viability at 10 µM (N2a [2]): 37.6%

Tmax ([1]; Sprague-Dawley, read-out: Tmax): 15 min
AUC(0-t) at 8 h [3]: 2670 ng·h/mL
SMILES: CCCCC(O)c1ccc(Cl)cc1-c1nn[nH]n1 (centres undefined)
viability at 10 µM (N2a [2]): 27.5%

Tmax ([1]; Sprague-Dawley, read-out: Tmax): 15 min
AUC(0-inf) ([13]; Sprague-Dawley): 37100 ng·h/mL
half-life ([24]; Sprague-Dawley): 279 min
AUC(0-t) at 8 h [3]: 26500 ng·h/mL
Cmax ([4]; Sprague-Dawley, read-out: Cmax): 12200 ng/mL
SMILES: CCCCC(O)c1ccccc1-c1nn[nH]n1 (centres undefined)
viability at 10 µM (N2a [2]): 40.5%
